# From ChEMBL document CHEMBL3046249, “Synthesis and antifungal activity of cinnamic acid esters” (1996)
# Legend:
# Format in all cases: functional
# Athelia rolfsii [1] = assay: Antimicrobial activity against Athelia rolfsii assessed as growth inhibition at 100 ppm by agar dilution method; settings: Agroathelia rolfsii; read-out: GI
# Pythium [2] = assay: Antimicrobial activity against Pythium sp. assessed as growth inhibition at 100 ppm by agar dilution method; settings: read-out: GI
# Athelia rolfsii [3] = assay: Antimicrobial activity against Athelia rolfsii assessed as growth inhibition at 10 ppm by agar dilution method; settings: Agroathelia rolfsii; read-out: GI
# Pythium [4] = assay: Antimicrobial activity against Pythium sp. assessed as growth inhibition at 10 ppm by agar dilution method; settings: read-out: GI
SMILES,inhibition of growth at 100 ppm (Athelia rolfsii [1]) [%],inhibition of growth at 100 ppm (Pythium [2]) [%],inhibition of growth at 10 ppm (Athelia rolfsii [3]) [%],inhibition of growth at 10 ppm (Pythium [4]) [%]
Cc1ccc(C(C)C)c(OC(=O)/C=C/c2ccccc2)c1,45,54,–,–
CCCOC(=O)/C=C/c1ccc(O)c(OC)c1,26,9,–,–
COc1cc(/C=C/C(=O)OC(C)C)ccc1O,38,18,–,–
CCCCOC(=O)/C=C/c1ccc(O)c(OC)c1,0,0,–,–
CCCOC(=O)/C=C/c1ccc(O)cc1,70,91,9,31
CCCCOC(=O)/C=C/c1ccc(O)cc1,81,71,29,35
O=C(/C=C/c1ccc(O)cc1)Oc1ccccc1,53,80,–,16
CC(C)=CCCC(C)CCOC(=O)/C=C/c1ccc(O)cc1 (stereo not given),55,63,–,–
Cc1ccc(OC(=O)/C=C/c2ccc(O)cc2)c(C(C)C)c1,38,36,–,–
Cc1ccc(C(C)C)c(OC(=O)/C=C/c2ccc(O)cc2)c1,31,33,–,–
COc1cc(/C=C/C(=O)Oc2ccc(C)cc2C(C)C)ccc1O,37,49,–,–
COc1cc(/C=C/C(=O)Oc2cc(C)ccc2C(C)C)ccc1O,58,9,–,–
C=CCc1ccc(OC(=O)/C=C/c2ccc(O)c(OC)c2)c(OC)c1,38,31,–,–
CC(C)=CCCC(C)CCOC(=O)/C=C/c1ccccc1 (stereo not given),0,0,–,–
C=CCc1ccc(OC(=O)/C=C/c2ccccc2)c(OC)c1,22,28,–,–
COC(=O)/C=C/c1ccc(O)c(OC)c1,37,0,–,–
O=C(O)/C=C/c1ccccc1 [CINNAMIC ACID],100,97,24,12
O=C(O)/C=C/c1ccc(O)cc1 [COUMARIC ACID],46,10,–,–
COC(=O)/C=C/c1ccccc1 [E-METHYL CINNAMATE],53,66,–,–
CCOC(=O)/C=C/c1ccc(O)c(OC)c1 [ETHYL FERULATE],43,50,–,–
CCOC(=O)/C=C/c1ccc(O)cc1 [ETHYL P-COUMARATE],45,87,8,29
COc1cc(/C=C/C(=O)O)ccc1O [FERULATE],54,48,–,–
CCCCCCCOC(=O)/C=C/c1ccccc1 [HEPTYL CINNAMATE],10,42,–,–
CC(C)OP(=O)(OC(C)C)SCc1ccccc1 [IPROBENFOS],100,89,69,42
CC(C)OC(=O)/C=C/c1ccc(O)cc1 [ISOPROPYL 3-(4-HYDROXYPHENYL)ACRYLATE],84,98,10,41
COC(=O)/C=C/c1ccc(O)cc1 [METHYL P-HYDROXYCINNAMATE],41,54,–,0
CCCCCCCCOC(=O)/C=C/c1ccccc1 [OCTYL CINNAMATE],13,56,–,–
O=C(/C=C/c1ccccc1)OCCc1ccccc1 [PHENETHYL CINNAMATE],22,28,–,–
